# Source: ChEMBL document CHEMBL4665844, “HDAC-Bax Multiple Ligands Enhance Bax-Dependent Apoptosis in HeLa Cells” (J Med Chem, 2020)
# The source made the active and inactive calls. The rule behind the calls is not given here.
# What was measured:
# [1] = system: HeLa; experiment: Synergistic antiproliferative activity against human HeLa cells assessed as assessed as reduction in cell viability after 48 hrs in presence of SAHA by MTT assay; assay type: functional, cell-based
# [2] = system: L02; experiment: Cytotoxicity against human L02 cells assessed as reduction in cell viability after 48 hrs by MTT assay; assay type: ADME, cell-based; details: L02, 48 h
# [3] = system: HeLa; experiment: Antiproliferative activity against siRNA-induced BAX knock down human HeLa cells after 48 hrs by MTT assay; assay type: functional, cell-based
# [4] = target: Bcl-2-like protein 1 (Homo sapiens, UniProt Q07817); experiment: Binding affinity to full length His-tagged Bcl-xl (unknown origin) preincubated for 30 min followed by 5-FAM Bid-BH3 addition and measured after 20 mins by fluorescence polarization assay
# [5] = system: HeLa; experiment: induction of apoptosis in siRNA-induced BAX knock down human HeLa cells at 0.3 to 3 uM after 48 hr by annexin V FITC and propidium iodide staining based flow cytometric analysis; assay type: functional, cell-based; details: dose microM 0.3-3, time 48.0 hrs
# [6] = system: HeLa; experiment: Induction of mitochondrial membrane potential loss in human HeLa cells at 1 to 3 uM after 24 hrs by TMRE staining based fluorescence assay; assay type: functional, cell-based; details: dose microM 1-3, time 24.0 hrs
# [7] = target: Histone deacetylase; experiment: Inhibition of HDAC in human HeLa nuclear extract using Boc-Lys(acetyl)-AMC or Boc-Lys (triflouroacetyl)-AMC as substrate preincubated for 5 mins followed by substrate addition and measured after 30 mins by fluorescence assay; assay type: subcellular, Nucleus
# [8] = system: HeLa; experiment: Antiproliferative activity against human HeLa cells assessed as reduction in cell viability after 48 hrs by MTT assay; assay type: functional, cell-based
# [9] = target: Induced myeloid leukemia cell differentiation protein Mcl-1 (Homo sapiens, UniProt Q07820); experiment: Binding affinity to full length His-tagged Mcl1 (unknown origin) preincubated for 30 min followed by 5-FAM Bid-BH3 addition and measured after 20 mins by fluorescence polarization assay
# [10] = system: HeLa; experiment: Induction of apoptosis in human HeLA cells at 3 uM after 48 hr by annexin V FITC and propidium iodide staining based flow cytometric analysis; assay type: functional
# [11] = target: Apoptosis regulator Bcl-2 (Homo sapiens, UniProt P10415); experiment: Binding affinity to full length His-tagged Bcl2 (unknown origin) preincubated for 30 min followed by 5-FAM Bid-BH3 addition and measured after 20 mins by fluorescence polarization assay
# [12] = target: T1, Apoptosis regulator BAX (Homo sapiens, UniProt Q07812); experiment: Binding affinity to recombinant human full length His-tagged BAX expressed in Escherichia coli BL21 (DE3) cells preincubated for 30 min followed by FITC-BIM addition and measured after 20 mins by fluorescence polarization assay
# [13] = system: HeLa; experiment: Up regulation of BAX protein in human HeLa cells at 0.3 to 3 uM after 6 to 12 hrs by Western blot analysis; assay type: functional, cell-based; details: dose microM 0.3-3, time hrs 6-12
# [14] = system: HeLa; experiment: Induction of apoptosis in human HeLa cells assessed as formation of apoptotic bodies at 1 uM after 6 to 36 hrs by fluorescence microscopic method; assay type: functional, cell-based; details: time hrs 6-36
# [15] = target: T1, Apoptosis regulator BAX; experiment: Activation of BAX in human HeLa cells assessed as confirmation activation at Bax6A7 after 6 to 12 hrs by immunoprecipitation assay; assay type: cell-based; details: filed as activator, dose microM 0.3-3, time hrs 6-12
# [16] = target: Histone deacetylase 1 (Homo sapiens, UniProt Q13547); experiment: Inhibition of HDAC1 (unknown origin) in using Boc-Lys(acetyl)-AMC or Boc-Lys (triflouroacetyl)-AMC as substrate preincubated for 5 mins followed by substrate addition and measured after 30 mins by fluorescence assay
# [17] = system: HeLa; experiment: Potency index, ratio of IC50 for BSTA1 to test compound IC50 for antiproliferation activity against human HeLa cells; assay type: functional
# [18] = target: T2, Histone deacetylase 8 (Homo sapiens, UniProt Q9BY41); experiment: Inhibition of HDAC8 (unknown origin) in using Boc-Lys(acetyl)-AMC or Boc-Lys (triflouroacetyl)-AMC as substrate preincubated for 5 mins followed by substrate addition and measured after 30 mins by fluorescence assay
# T2 sequence (Q9BY41 whole entry): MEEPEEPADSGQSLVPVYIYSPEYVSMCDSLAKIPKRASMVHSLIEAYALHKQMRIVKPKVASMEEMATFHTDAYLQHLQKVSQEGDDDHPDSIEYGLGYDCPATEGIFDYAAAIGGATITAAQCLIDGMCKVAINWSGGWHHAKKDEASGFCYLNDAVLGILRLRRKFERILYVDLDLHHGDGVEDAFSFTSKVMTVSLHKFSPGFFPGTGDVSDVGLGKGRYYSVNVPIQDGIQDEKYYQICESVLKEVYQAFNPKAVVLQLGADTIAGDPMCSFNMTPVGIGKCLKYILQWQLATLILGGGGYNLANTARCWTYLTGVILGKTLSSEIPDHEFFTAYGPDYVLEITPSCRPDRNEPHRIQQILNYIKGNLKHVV
# [19] = system: HeLa; experiment: Potency index, ratio of IC50 for SAHA to test compound IC50 for antiproliferation activity against human HeLa cells; assay type: functional
# [20] = target: Histone deacetylase 2 (Homo sapiens, UniProt Q92769); experiment: Inhibition of HDAC2 (unknown origin) in using Boc-Lys(acetyl)-AMC or Boc-Lys (triflouroacetyl)-AMC as substrate preincubated for 5 mins followed by substrate addition and measured after 30 mins by fluorescence assay
# [21] = system: HeLa; experiment: Induction of apoptosis in human HeLA cells at 1 uM after 48 hr by laser confocal microscopic based TUNEL assay; assay type: functional, cell-based
# [22] = system: HeLa; experiment: Induction of mitochondrial membrane potential loss in human HeLa cells after 24 hrs by TMRE staining based fluorescence assay; assay type: functional, cell-based; details: dose microM 1-3, time 24.0 hrs
# [23] = system: HeLa; experiment: induction of apoptosis in siRNA-induced BAX knock down human HeLa cells at 3 uM after 48 hr by annexin V FITC and propidium iodide staining based flow cytometric analysis; assay type: functional
# [24] = system: HeLa; experiment: Induction of apoptosis in human HeLa cells assessed as membrane blebbing at 1 uM after 6 to 36 hrs by fluorescence microscopic method; assay type: functional, cell-based; details: time hrs 6-36
# [25] = system: HeLa; experiment: Induction of apoptosis in human HeLA cells at 0.3 to 1 uM after 48 hr by annexin V FITC and propidium iodide staining based flow cytometric analysis; assay type: functional, cell-based; details: dose microM 0.3-1, time 48.0 hrs
# [26] = system: HeLa; experiment: Induction of apoptosis in human HeLa cells assessed as cellular shrinkage at 1 uM after 6 to 36 hrs by fluorescence microscopic method; assay type: functional, cell-based; details: time hrs 6-36
# T1 sequence (Q07812 whole entry): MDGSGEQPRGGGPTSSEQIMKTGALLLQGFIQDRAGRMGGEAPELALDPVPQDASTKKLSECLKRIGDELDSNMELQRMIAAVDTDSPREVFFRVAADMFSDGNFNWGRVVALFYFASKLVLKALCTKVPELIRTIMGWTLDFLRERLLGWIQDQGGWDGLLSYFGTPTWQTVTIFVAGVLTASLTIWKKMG
# Chain of Apoptosis regulator Bcl-2 (P10415 whole entry): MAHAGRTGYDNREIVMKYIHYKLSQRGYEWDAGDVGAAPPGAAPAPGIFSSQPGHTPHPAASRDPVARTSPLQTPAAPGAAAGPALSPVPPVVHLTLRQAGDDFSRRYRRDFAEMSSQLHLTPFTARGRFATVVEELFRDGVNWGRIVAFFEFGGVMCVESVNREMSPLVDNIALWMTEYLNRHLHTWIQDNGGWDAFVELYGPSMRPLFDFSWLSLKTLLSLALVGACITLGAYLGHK
# Chain of Induced myeloid leukemia cell differentiation protein Mcl-1 (Q07820 whole entry): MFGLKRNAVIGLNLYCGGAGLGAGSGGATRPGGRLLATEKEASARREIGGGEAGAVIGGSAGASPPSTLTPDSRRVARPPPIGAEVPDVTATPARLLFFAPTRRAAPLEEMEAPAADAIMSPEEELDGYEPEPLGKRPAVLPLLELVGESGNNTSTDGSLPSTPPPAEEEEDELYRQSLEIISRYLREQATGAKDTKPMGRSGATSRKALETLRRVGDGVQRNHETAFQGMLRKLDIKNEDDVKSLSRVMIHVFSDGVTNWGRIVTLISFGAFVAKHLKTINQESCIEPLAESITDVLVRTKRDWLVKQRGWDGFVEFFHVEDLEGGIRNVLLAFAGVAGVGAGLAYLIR
# Chain of Bcl-2-like protein 1 (Q07817 whole entry): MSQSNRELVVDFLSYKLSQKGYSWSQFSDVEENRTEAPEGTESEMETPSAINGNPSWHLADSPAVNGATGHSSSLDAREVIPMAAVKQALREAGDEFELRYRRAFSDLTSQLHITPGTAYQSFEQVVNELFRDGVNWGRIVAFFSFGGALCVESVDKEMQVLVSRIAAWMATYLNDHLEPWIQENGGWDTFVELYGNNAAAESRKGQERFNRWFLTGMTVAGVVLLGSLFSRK
# Chain of Histone deacetylase 2 (Q92769 whole entry): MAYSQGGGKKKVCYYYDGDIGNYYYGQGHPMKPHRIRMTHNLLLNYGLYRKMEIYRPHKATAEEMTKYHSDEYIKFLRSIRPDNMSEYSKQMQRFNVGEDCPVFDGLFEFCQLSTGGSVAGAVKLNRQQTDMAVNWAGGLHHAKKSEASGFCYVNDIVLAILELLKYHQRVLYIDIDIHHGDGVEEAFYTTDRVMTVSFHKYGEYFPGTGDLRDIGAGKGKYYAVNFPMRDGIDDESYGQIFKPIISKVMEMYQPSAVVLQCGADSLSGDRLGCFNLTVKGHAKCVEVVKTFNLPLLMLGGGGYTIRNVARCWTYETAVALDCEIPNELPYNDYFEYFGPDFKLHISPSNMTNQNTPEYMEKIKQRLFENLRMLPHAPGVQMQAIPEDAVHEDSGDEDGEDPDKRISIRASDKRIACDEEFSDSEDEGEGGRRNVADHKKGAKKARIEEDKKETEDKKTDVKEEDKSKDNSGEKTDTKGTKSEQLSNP
# Chain of Histone deacetylase 1 (Q13547 whole entry): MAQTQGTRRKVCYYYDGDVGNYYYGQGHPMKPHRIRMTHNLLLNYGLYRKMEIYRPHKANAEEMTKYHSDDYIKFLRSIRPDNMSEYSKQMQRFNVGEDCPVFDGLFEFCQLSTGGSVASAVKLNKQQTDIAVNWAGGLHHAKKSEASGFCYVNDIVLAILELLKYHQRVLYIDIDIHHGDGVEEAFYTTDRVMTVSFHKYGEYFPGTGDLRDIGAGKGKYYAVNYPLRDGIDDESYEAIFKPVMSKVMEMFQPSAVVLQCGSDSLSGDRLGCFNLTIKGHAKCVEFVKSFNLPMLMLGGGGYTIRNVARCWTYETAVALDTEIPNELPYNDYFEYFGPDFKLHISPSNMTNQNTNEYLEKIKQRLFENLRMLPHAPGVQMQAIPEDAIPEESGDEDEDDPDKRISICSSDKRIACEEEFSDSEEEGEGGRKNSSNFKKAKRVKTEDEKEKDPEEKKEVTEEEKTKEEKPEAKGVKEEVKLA
smiles,measurement,setting,value
O=C1/C(=N\Nc2nccs2)C(c2ccccc2)=NN1c1nc(-c2ccccc2)cs1,IC50,[1],810 nM
same,IC50,[2],54200 nM
same,IC50,[3],> 20000 nM
same,EC50,[4],> 10000 nM
same,Activity,[5],inactive
same,Activity,[6],Active
same,IC50,[7],> 10000 nM
same,IC50,[8],11500 nM
same,EC50,[9],> 10000 nM
same,Activity,[10],19.2%
same,EC50,[11],> 10000 nM
O=C(NO)c1ccc(-c2csc(N3N=C(c4ccccc4)/C(=N/Nc4nccs4)C3=O)n2)cc1,IC50,[7],577.4 nM
same,EC50,[12],874 nM
O=C(CCCCCOc1ccc(-c2csc(N3N=C(c4ccccc4)/C(=N/Nc4nccs4)C3=O)n2)cc1)NO,IC50,[7],75.8 nM
same,EC50,[12],925 nM
O=C(CCCCCCCOc1ccc(-c2csc(N3N=C(c4ccccc4)/C(=N/Nc4nccs4)C3=O)n2)cc1)NO,IC50,[7],135.2 nM
same,EC50,[12],532 nM
O=C(CCCCOc1ccc(-c2csc(N3N=C(c4ccccc4)/C(=N/Nc4nccs4)C3=O)n2)cc1)NO,IC50,[7],118.5 nM
same,EC50,[12],967 nM
O=C(NO)c1ccc(COc2ccc(-c3csc(N4N=C(c5ccccc5)/C(=N/Nc5nccs5)C4=O)n3)cc2)cc1,IC50,[7],85 nM
same,EC50,[12],538 nM
O=C(O)c1ccc(-c2csc(N3N=C(c4ccccc4)/C(=N/Nc4nccs4)C3=O)n2)cc1,IC50,[7],> 10000 nM
same,EC50,[12],704 nM
O=C(/C=C/c1ccc(CNC(=O)c2ccc(-c3csc(N4N=C(c5ccccc5)/C(=N/Nc5nccs5)C4=O)n3)cc2)cc1)NO,IC50,[7],1341.5 nM
same,EC50,[12],2220 nM
O=C(CCCCCCNC(=O)c1ccc(-c2csc(N3N=C(c4ccccc4)/C(=N/Nc4nccs4)C3=O)n2)cc1)NO,IC50,[7],98.8 nM
same,EC50,[12],1140 nM
O=C(CCCOc1ccc(-c2csc(N3N=C(c4ccccc4)/C(=N/Nc4nccs4)C3=O)n2)cc1)NO,IC50,[7],674.8 nM
same,EC50,[12],725 nM
O=C(CCCCCNC(=O)c1ccc(-c2csc(N3N=C(c4ccccc4)/C(=N/Nc4nccs4)C3=O)n2)cc1)NO,IC50,[7],87.5 nM
same,EC50,[12],809 nM
O=C(CCCCCCC(=O)Nc1ccccc1)NO [VORINOSTAT],Activity,[5],inactive
same,Activity,[6],Active
same,Activity,[13],Active
same,EC50,[12],> 10000 nM
same,Activity,[10],47.1%
O=C(CCCCNC(=O)c1ccc(-c2csc(N3N=C(c4ccccc4)/C(=N/Nc4nccs4)C3=O)n2)cc1)NO,IC50,[7],207.4 nM
same,EC50,[12],719 nM
O=C(CCCCCCOc1ccc(-c2csc(N3N=C(c4ccccc4)/C(=N/Nc4nccs4)C3=O)n2)cc1)NO,IC50,[7],40.8 nM
same,EC50,[12],856 nM
O=C(/C=C/c1ccc(COc2ccc(-c3csc(N4N=C(c5ccccc5)/C(=N/Nc5nccs5)C4=O)n3)cc2)cc1)NO,IC50,[7],243.7 nM
same,EC50,[12],992 nM
O=C(NO)c1ccc(CNC(=O)c2ccc(-c3csc(N4N=C(c5ccccc5)/C(=N/Nc5nccs5)C4=O)n3)cc2)cc1,Activity,[14],Active
same,Activity,[15],Dose-dependent effect
same,IC50,[16],66 nM
same,IC50,[2],65200 nM
same,IC50,[3],7550 nM
same,EC50,[4],> 10000 nM
same,Ratio IC50,[17],3
same,IC50,[18],1090 nM
same,Ratio IC50,[19],15
same,IC50,[7],62.8 nM
same,IC50,[20],198 nM
same,IC50,[8],860 nM
same,Activity,[21],Active
same,Activity,[22],Dose-dependent effect
same,Activity,[13],Active
same,Activity,[23],14.8%
same,EC50,[12],393 nM
same,Activity,[24],Active
same,Activity,[25],Active
same,EC50,[9],> 10000 nM
same,Activity,[10],60%
same,EC50,[11],> 10000 nM
same,Activity,[26],Active
